Data on 14 compounds can be found in patent US20040214832A1, “Piperazine derivative renin inhibitors” (priority 2003, published 2004).

This test concerns the target T1, human renin (Homo sapiens, UniProt P00797).
T1 sequence (P00797 67-406): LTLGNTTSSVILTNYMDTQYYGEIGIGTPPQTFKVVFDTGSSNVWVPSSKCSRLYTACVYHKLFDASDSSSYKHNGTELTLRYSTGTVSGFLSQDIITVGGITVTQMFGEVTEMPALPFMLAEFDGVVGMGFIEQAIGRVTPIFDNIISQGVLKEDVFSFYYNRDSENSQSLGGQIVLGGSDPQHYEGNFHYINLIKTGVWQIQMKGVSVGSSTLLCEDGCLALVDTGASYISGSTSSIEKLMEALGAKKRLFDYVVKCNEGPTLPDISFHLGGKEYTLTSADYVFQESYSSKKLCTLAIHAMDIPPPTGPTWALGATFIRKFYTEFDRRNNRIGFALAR
The test can be described thus: Determination of renin IC50 by tGFP FRET assay. The class given is biochemical. The following applies: Human recombinant renin, tandem GFP substrate 650 nM, 60 min incubation with compound, pH 7.4, 11-point curve. Summed up:
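Human recombinant renin (final 50.4 μIU) preincubated 60 min with compound (5% DMSO final) in 50 mM HEPES, 1 mM EDTA, 1% PEG 8000, 1 mM DTT, 0.1% BSA, pH 7.4, then tandem-GFP substrate added at 650 nM final. FRET fluorescence read; IC50 from 11-point curves spanning 100 μM–1 pM.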
Consider `COc1ccccc1COCCCOc1ccc(N2C(=O)CNC[C@@H]2CNC(=O)c2ccccc2F)cc1` [Example 86, 2-fluoro-N-([2R]-1-{4-[3-(2-methoxybenzyloxy)-propoxy]-phenyl}-6-oxopiperazin-2-ylmethyl)-benzamide], for which the IC50 is over 1000 nM.

For the compound `Fc1ccccc1COCCCOc1ccc(N2CCNC[C@@H]2COc2ccc3ccccc3c2)cc1` [Example 87, (2R)-1-{4-[3-(2-fluorobenzyloxy)-propoxy]-phenyl}-2-(naphthalen-2-yloxymethyl)-piperazine], the IC50 stood at 597 nM.

`CCOc1ccccc1COCCCOc1ccc(N2CCNC[C@@H]2COc2ccc3ccccc3c2)cc1` [Example 88, (2R)-1-{4-[3-(2-ethoxybenzyloxy)-propoxy]-phenyl}-2-(naphthalen-2-yloxymethyl)-piperazine]: the IC50 is 1980 nM.

In the case of `COc1cccc(COCCCOc2ccc(N3CCNC[C@@H]3COc3ccc4ccccc4c3)cc2)c1` [Example 89, (2R)-1-{4-[3-(3-methoxybenzyloxy)-propoxy]-phenyl}-2-(naphthalen-2-yloxymethyl)-piperazine], the IC50 came out at 23700 nM.

`COc1ccccc1COCCCOc1ccc(N2CCNC[C@@H]2COCc2ccc3ccccc3c2)cc1` [Example 90, (2R)-1-{4-[3-(2-methoxybenzyloxy)-propoxy]-phenyl}-2-(naphthalen-2-ylmethoxymethyl)-piperazine]: the IC50 came out at 1700 nM.

For the compound `COc1ccccc1COCCCOc1ccc(N2CCNC[C@@H]2COCc2cccc(-c3ccccc3)c2)cc1` [Example 91, (2R)-2-(biphenyl-3-ylmethoxymethyl)-1-{4-[3-(2-methoxybenzyloxy)-propoxy]-phenyl}-piperazine], the IC50 was 1020 nM.

For the compound `COc1ccccc1COCCCOc1ccc(N2C(=O)CNC[C@@H]2COc2ccc(-c3ccccc3)cc2)cc1` [Example 92, (6R)-6-(biphenyl-4-yloxymethyl)-1-(4-[3-(2-methoxybenzyloxy)-propoxy]-phenyl)-piperazin-2-one], the IC50 was 2520 nM.

Take `COc1ccccc1COCCCOc1ccc(N2C(=O)CNC[C@@H]2COc2ccc(NC(C)=O)cc2)cc1` [Example 93, N-[4-([2R]-1-{4-[3-(2-methoxybenzyloxy)-propoxy]-phenyl}-6-oxopiperazin-2-ylmethoxy)-phenyl]-acetamide]: the IC50 is over 1000 nM.

On to `COc1ccccc1COCCOCc1ccc(N2CCNC[C@@H]2COc2ccc3ccccc3c2)cc1` [Example 94, (2R)-1-{4-[2-(2-methoxybenzyloxy)-ethoxymethyl]-phenyl}-2-(naphthalene-2-yloxymethyl)-piperazine], for which the IC50 is 2550 nM.

As to `COc1ccccc1COCCCOc1ccc(N2C(=O)CNC[C@@H]2COc2ccc(C(=O)N(C)C)cc2)cc1` [Example 95, 4-([2R]-1-{4-[3-(2-methoxybenzyloxy)-propoxy]-phenyl}-6-oxopiperazin-2-ylmethoxy)-N,N-dimethyl-benzamide], the IC50 stood at 4050 nM.

For the compound `COC(=O)c1cc(N2C(=O)CNC[C@@H]2COc2ccc3ccccc3c2)ccc1OCCCOCc1ccccc1OC` [Example 96, 2-[(5R)-3-(2-methoxybenzyloxy)-propoxy]-5-[2-(naphthalene-2-yloxymethyl)-6-oxopiperazin-1-yl]-benzoic acid methyl ester], the IC50 was over 1000 nM.

With `COc1ccccc1OCCCOCc1ccc(N2CCNC[C@@H]2COc2ccc3ccccc3c2)cc1` [Example 97, (2R)-1-(4-[3-(2-methoxyphenoxy)-propoxymethyl]-phenyl)-2-(naphthalene-2-yloxymethyl)-piperazine], the IC50 is 26300 nM.

For `COc1ccccc1COCCCOc1ccc(N2C(=O)CNC[C@@H]2COc2ccc3ccccc3c2)cc1C(=O)O` [Example 98, 2-[(5R)-3-(2-methoxybenzyloxy)-propoxy]-5-[2-(naphthalene-2-yloxymethyl)-6-oxopiperazin-1-yl]-benzoic acid], the IC50 was over 1000 nM.

Take `COCc1ccc(N2CCNC[C@@H]2COc2ccc3ccccc3c2)cc1` [Example 99, (2R)-1-(4-methoxymethylphenyl)-2-(naphthalene-2-yloxymethyl)-piperazine]: the IC50 was over 1000 nM.

One may read the IC50 as the midpoint of a concentration-inhibition curve.
